This is an account of results in PMC11729640, “Synthesis and evaluation of 6-arylaminobenzamides as positron emission tomography imaging ligands for the sphingosine-1-phosphate-5 receptor” (RSC Medicinal Chemistry, 2025).

The test system of series [1] is rat brain. As to the kind of experiment: Pilot PET in vivo imaging in naïve rats. The conditions noted are these: intravenous bolus, n = 3. Details: species or system Sprague–Dawley rats. As for the experimental part: Following successful preparation of [^18F]TEFM78, PET imaging with rodents was next conducted. On intravenous bolus administration of [^18F]TEFM78, there was rapid uptake of the radiotracer into the rat brain (Fig. 3a), followed by clearance within 20 minutes of the scan starting (Fig. 3b). […] The biodistribution and kinetics of the spinal cord were different from the brain with a lower peak radiotracer uptake but slower clearance (Fig. 3b). […] Typically, low free fraction of compounds can limit brain penetration. However, as shown in the PET images presented in Fig. 3, despite low free fraction, brain penetration of [^18F]TEFM78 is successfully achieved. […]
Fig. 3 Brain and spinal cord kinetics of [^18F]TEFM78 in naïve rats. […] Data expressed as SUV and presented as mean ± SEM, n = 3.
All animal procedures were performed in accordance with the guidelines for care and use of laboratory animals of Edinburgh University and experiments were approved by the Home Office under the Animals (Scientific Procedures) Act 1986, UK. […] Once the PET scans were reconstructed, data was analysed using PMOD image analysis software (PMOD Technologies LLC, Zürich, Switzerland). […] Time activity curves (TACs) were created for each region and PET data expressed as standard uptake value (SUV), calculated as radioactive concentration in the VOI divided by the injected dose and animal's weight.

The nature of series [2]: Stability of radiotracer by radio-HPLC and radio-TLC. It is filed as physicochemical. An excerpt:
On identification of TEFM78 as the lead compound, a synthetic route to access a suitable precursor for late stage radiofluorination was developed (Scheme 3). Our approach focused on the synthesis of a 6-arylaminobenzamide that could undergo late-stage functionalisation at the 4′-position for subsequent radiofluorination. Nucleophilic aromatic substitution of 9b with 2,6-dimethylaniline (18), followed by Ullmann coupling and amidation gave benzamide 21 in 81% yield over the three steps. Activation of the electron-rich aniline ring was achieved using silver(I) triflimide-catalysed iodination.[17] Following optimisation (solvent and reaction time), this gave 22 in 54% yield. Subsequent Pd(0)-catalysed stannylation gave trimethyltin precursor 23 in 84% yield. The radiosynthesis of [^18F]TEFM78 was then performed using a TRACERlab FXFN automated synthesiser. No-carrier-added [^18F]fluoride from the cyclotron was trapped on a carbonate-pre-conditioned quaternary methyl ammonium (QMA) cartridge, eluted into the reaction vessel and then azeotropically dried. […]
Analytical HPLC was carried out on a Thermo Dionex Ulimate system 3000 equipped with a Berthold FlowStar LB 513 radio flow detector and a DAD-3000 UV detector. […] The nonradioactive standards were detected using a UV wavelength of 254 nm.

As to `COc1c(C)ccc(Nc2c(C)cc([18F])cc2C)c1C(N)=O` [[^18F]TEFM78], in series [1], the “peak standard uptake value (SUV) in the brain” value was found to be 3 g/mL. In addition, the “radiochemical purity (RCP) ten hours after production (stability)” value in series [2] was more than 99%.
